For the test, the system named is 926638-142-R-J1-PDC complex spheroid viability. Description: Anticancer human tumor 926638-142-R-J1-PDC patient-derived endometrial carcinoma cell line growth inhibition [POLQ]. The conditions noted are these: for viability, T/C: stronger effect = lower value. On the procedure: Multicellular complex tumor spheroid response to Polymerase (POL) inhibitors (novobiocin, ART-558, RP6685) in combination with a variety of drugs and investigational agents in selected tumor cell lines
The POL inhibitors (novobiocin, ART-558, and RP6685) were evaluated both individually and in combination with standard of care and investigational anticancer small molecules within a complex spheroid model of solid tumors. . Complex spheroids include a stromal component modeled by human endothelial cells (HUVEC) and fibroblasts modeled by human mesenchymal stem cells (MSCs). The concentration ranges selected for each drug and investigational agent were based upon clinically achievable concentrations if the clinical Cmax of the agent was known.
Compounds. The drugs and investigational agents: novobiocin (NSC847541), ART-558 (NSC835418), RP-6685 (NSC848927), peposertib (NSC802822), ceralasertib (NSC780249), elimusertib (NSC800525), camonsertib (NSC841442), AZD-1390 (NSC803789), olaparib (NSC753686), talazoparib (NSC767125), rucaparib (NSC756644), sotorasib (NSC818433), MRTX-1133 (NSC836407), SN-38 (NSC673596), topotecan (NSC609699), epotoside (NSC141540), doxorubicin (NSC123127), gemcitabine (NSC613327), 5-fluorouracil (NSC19893), paclitaxel (NSC125973), vemurafenib (NSC761431), MSA-2 (NSC828583), SN-011 (NSC837082), adavosertib (NSC754352), prexasertib (NSC758257), carboplatin (NSC241240) and oxaliplatin (NSC266046), were obtained from the National Cancer Institute (NCI) Developmental Therapeutics Program Chemical Repository (21). The FDA-approved anticancer drug set is available from the Developmental Therapeutics Program at https://dtp.cancer.gov/organization/dscb/obtaining/. […] The stock solutions were prepared in dimethyl sulfoxide (DMSO, Sigma-Aldrich, St. Louis, MO, cat. D2650), except for the platinum compounds which were prepared in saline (Quality Biological, Gaithersburg, MD, cat. 114-055-101), at 800-fold the tested concentration and stored at -70 degrees C prior to their use. All drugs and investigational agents were tested over a range starting from a high concentration at or near the clinical Cmax and decreasing in half-log increments. If the clinical Cmax for an agent had not been determined, the highest concentration tested was 10 microM, except for SN-38, which was tested at a high concentration of 1 microM.
Cell Culture. All cells were maintained in an incubator at 37 degrees C and 5% CO2 with 95% humidity. The PDC lines were cultured according to standard operating procedures established by the NCI PDMR (https://pdmr.cancer.gov). Table 3 of the manuscript, lists the cell lines along with the number of the three cell types plated to form the mct-spheroids and media for tumor cell growth. After thawing, all PDC lines, except 997537-175-T-J1-PDC and 415267-285-R-J2-PDC, were cultured in Matrigel-coated flasks prepared with a working solution of 1X Ham's F-12 nutrient mix, without supplementation (Thermo Fisher Scientific, cat. 11765054), 100 U/mL penicillin-streptomycin (Thermo Fisher Scientific, cat. 15140122), and 2.5% Matrigel (Corning Inc., Corning, NY, cat. 354248) for the first three passages. The two PDC lines 997537-175-T-J1-PDC and 415267-285-R-J2-PDC were cultured on uncoated flasks. The 857933-349-R-J2-PDC line was cultured in 6C/Colon 1B media containing advanced DMEM/F-12 (Thermo Fisher Scientific, cat. 12634028), 10 mM HEPES (Thermo Fisher Scientific, cat. 15630080), 1X GlutaMAX supplement (Thermo Fisher Scientific, cat. 35050061), 0.1 mg/mL primocin (InvivoGen, San Diego, CA, cat. ant-pm-2), 10% defined fetal bovine serum, heat inactivated (HyClone Laboratories Inc., Logan, UT, cat. SH30070.03HI), 50% L-WRN conditioned media (ATCC, cat. CRL-3276), 1.25 mM N-Acetyl-L-cysteine (Sigma-Aldrich, cat. A9165), 10 mM nicotinamide (Sigma-Aldrich, cat. N0636), 1X B-27 supplement (Thermo Fisher Scientific, cat. 17504044), 1X N-2 supplement (Thermo Fisher Scientific, cat. […]

Setting [1] is: curve of first compound, second compound 0.0316 µM.
[2] abbreviates: curve of first compound, second compound 0.1 µM.
Where [3] appears, read: curve of first compound, second compound 0.316 µM.
Setting [4] is: curve of first compound, second compound 1 µM.
The mark [5] stands for this setting: curve of first compound, second compound 3.16 µM.
Where [6] appears, read: curve of first compound, second compound 10 µM.
Setting [7] is: second compound 0.0316 µM, first compound 0.0316 µM.
[8] abbreviates: second compound 0.0316 µM, first compound 0.1 µM.
Setting [9] is: second compound 0.1 µM, first compound 0.0316 µM.
Setting [10] is: second compound 0.1 µM, first compound 0.1 µM.
[11] abbreviates: second compound 0.316 µM, first compound 0.0316 µM.
[12] abbreviates: second compound 0.316 µM, first compound 0.1 µM.
[13] abbreviates: second compound 1 µM, first compound 0.0316 µM.
[14] abbreviates: second compound 1 µM, first compound 0.1 µM.
[15] abbreviates: second compound 3.16 µM, first compound 0.0316 µM.
Setting [16] is: second compound 3.16 µM, first compound 0.1 µM.
The mark [17] stands for this setting: second compound 10 µM, first compound 0.0316 µM.
Setting [18] is: second compound 10 µM, first compound 0.1 µM.

This note sets out measurements from PubChem BioAssay AID1963826 (Molecular Pharmacology Branch, DTP, NCI, 2024).

“And” between values parts separate entries of the source, which are not always exact repeats. Identical values can stand only once.
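Note: spheroids exposed to drugs for one week before readout.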
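Throughout, for viability, T/C: percent viability relative to DMSO vehicle control wells set as 100%.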

Consider `Cn1ncnc1[C@H]1c2n[nH]c(=O)c3cc(F)cc(c23)N[C@@H]1c1ccc(F)cc1` + Cc1cccc(N(C)C(=O)C2C(O)CCN2c2nc(C)cc(C(F)(F)F)c2C#N)c1, for which the half-maximal inhibitory concentration (IC50) – broadly, the concentration that gives 50% inhibition – was above 100 nM under setting [1]; above 100 nM under setting [2]; above 100 nM under setting [3]; above 100 nM under setting [4]; above 100 nM under setting [5]; above 100 nM under setting [6]. Further, the viability, T/C (usually the ratio of treated to control) runs as follows: (second compound 0.0316 µM, first compound 0.000316 µM) 100%; (second compound 0.0316 µM, first compound 0.001 µM) 83.6%; (second compound 0.0316 µM, first compound 0.00316 µM) 86.1%; (second compound 0.0316 µM, first compound 0.01 µM) 84.9%; under setting [7], 81.5%; under setting [8], 73.8%. Besides, the viability, T/C was 91.2% (second compound 0.1 µM, first compound 0.000316 µM); 82.4% (second compound 0.1 µM, first compound 0.001 µM); 83.6% (second compound 0.1 µM, first compound 0.00316 µM); 82.5% (second compound 0.1 µM, first compound 0.01 µM); 73.7% under setting [9]; 78.8% under setting [10]. Further, the viability, T/C is, setting by setting: (second compound 0.316 µM, first compound 0.000316 µM) 86.9%; (second compound 0.316 µM, first compound 0.001 µM) 81.2%; (second compound 0.316 µM, first compound 0.00316 µM) 92.9%; (second compound 0.316 µM, first compound 0.01 µM) 73.4%; under setting [11], 64.9%; under setting [12], 65.3%. Besides, the viability, T/C is, setting by setting: (second compound 1 µM, first compound 0.000316 µM) 103%; (second compound 1 µM, first compound 0.001 µM) 101%; (second compound 1 µM, first compound 0.00316 µM) 70.3%; (second compound 1 µM, first compound 0.01 µM) 77.2%; under setting [13], 85.1%; under setting [14], 68.1%. For the same molecule, the viability, T/C (second compound 3.16 µM, first compound 0.000316 µM) is 73.5%; the viability, T/C (second compound 3.16 µM, first compound 0.001 µM) was 97.5%; the viability, T/C (second compound 3.16 µM, first compound 0.00316 µM) is 91%; the viability, T/C (second compound 3.16 µM, first compound 0.01 µM) was 67.5%; the viability, T/C under setting [15] is 74.1%; the viability, T/C under setting [16] was 76.8%. For the same molecule, the viability, T/C is 87.9% (second compound 10 µM, first compound 0.000316 µM); 84.2% (second compound 10 µM, first compound 0.001 µM); 77.3% (second compound 10 µM, first compound 0.00316 µM); 80% (second compound 10 µM, first compound 0.01 µM); 72.7% under setting [17]; 75.7% under setting [18].

Take `Cc1cccc(N(C)C(=O)C2C(O)CCN2c2nc(C)cc(C(F)(F)F)c2C#N)c1` (configuration not stated): the viability, T/C is 92.5% [middle of 13 runs] (compound 0.1 µM) and 94.9% [middle of 13 runs] (compound 0.316 µM). In addition, the IC50 was above 10000 nM (compound alone, run of 01/08/2024) and above 10000 nM (compound alone, run of 01/19/2024).

Regarding `Nc1ccn(C2OC(CO)C(O)C2(F)F)c(=O)n1` (configuration not stated) + Cc1cccc(N(C)C(=O)C2C(O)CCN2c2nc(C)cc(C(F)(F)F)c2C#N)c1, the IC50 under setting [1] came to 1300 nM; the IC50 under setting [2] came out at 1730 nM; the IC50 under setting [3] was found to be 844 nM; the IC50 under setting [4] came out at 624 nM; the IC50 under setting [5] stood at 821 nM; the IC50 under setting [6] worked out at 535 nM. For the same molecule, the viability, T/C was 88.1% under setting [7]; 66.7% under setting [8]; 54.9% (second compound 0.0316 µM, first compound 0.316 µM); 62.1% (second compound 0.0316 µM, first compound 1 µM); 44.8% (second compound 0.0316 µM, first compound 3.16 µM); 20.9% (second compound 0.0316 µM, first compound 10 µM). The viability, T/C by setting is: under setting [9], 81.3%; under setting [10], 68.9%; (second compound 0.1 µM, first compound 0.316 µM) 57.9%; (second compound 0.1 µM, first compound 1 µM) 62.2%; (second compound 0.1 µM, first compound 3.16 µM) 46%; (second compound 0.1 µM, first compound 10 µM) 22.8%. Further, the viability, T/C is 97.1% under setting [11]; 64.6% under setting [12]; 60.8% (second compound 0.316 µM, first compound 0.316 µM); 51.4% (second compound 0.316 µM, first compound 1 µM); 43.7% (second compound 0.316 µM, first compound 3.16 µM); 26.2% (second compound 0.316 µM, first compound 10 µM). Further, the viability, T/C under setting [13] was 80.8%; the viability, T/C under setting [14] was 62.1%; the viability, T/C (second compound 1 µM, first compound 0.316 µM) is 53.8%; the viability, T/C (second compound 1 µM, first compound 1 µM) was 46.5%; the viability, T/C (second compound 1 µM, first compound 3.16 µM) is 44.2%; the viability, T/C (second compound 1 µM, first compound 10 µM) is 22.4%. In addition, the viability, T/C under setting [15] is 89.4%; the viability, T/C under setting [16] was 63.6%; the viability, T/C (second compound 3.16 µM, first compound 0.316 µM) is 48.5%; the viability, T/C (second compound 3.16 µM, first compound 1 µM) is 60.4%; the viability, T/C (second compound 3.16 µM, first compound 3.16 µM) was 45.1%; the viability, T/C (second compound 3.16 µM, first compound 10 µM) was 28%. The viability, T/C was 85.1% under setting [17]; 70.5% under setting [18]; 52% (second compound 10 µM, first compound 0.316 µM); 44.5% (second compound 10 µM, first compound 1 µM); 41.4% (second compound 10 µM, first compound 3.16 µM); 32.5% (second compound 10 µM, first compound 10 µM).

For the molecule `O=c1[nH]cc(F)c(=O)[nH]1`, the viability, T/C was 109% and 99.3% and 86.3% (compound 0.0316 µM); 101% and 89.2% and 108% (compound 0.1 µM); 92% (2×) and 87.6% (compound 0.316 µM); 89% and 95.6% and 93% (compound 1 µM); 84.3% and 86% and 78.8% (compound 3.16 µM); 75% and 88% and 80% (compound 10 µM). The IC50 (curve of compound) is above 10000 nM.

On to `CCCS(=O)(=O)Nc1ccc(F)c(C(=O)c2c[nH]c3ncc(-c4ccc(Cl)cc4)cc23)c1F`, for which the viability, T/C runs as follows: (compound 0.0316 µM) 104% and 88.4% and 90.9%; (compound 0.1 µM) 107% and 99.6% and 92.5%; (compound 0.316 µM) 96.6% and 97% and 86%; (compound 1 µM) 98.3% and 106% and 94.4%; (compound 3.16 µM) 88.2% and 76.9% and 82%; (compound 10 µM) 50.4% and 47.4% and 51.5%. Also, the IC50 (curve of compound) is > 10000 nM and 9030 nM.
